# From article PMC5681660, “Reduced hepatitis B and D viral entry using clinically applied drugs as novel inhibitors of the bile acid transporter NTCP” (Scientific Reports, 2017)
# Where a name gives a salt, the structure may show the parent alone. Read-outs that look alike come from different tables or passages of the source.
# Assays:
# human NTCP [1] = biological target: T1, human NTCP (Homo sapiens, UniProt Q14973); assay: Screening taurocholate uptake assay (96-well, [14C]taurocholate, 10 µM drug)
# T1 sequence (Q14973 1-349): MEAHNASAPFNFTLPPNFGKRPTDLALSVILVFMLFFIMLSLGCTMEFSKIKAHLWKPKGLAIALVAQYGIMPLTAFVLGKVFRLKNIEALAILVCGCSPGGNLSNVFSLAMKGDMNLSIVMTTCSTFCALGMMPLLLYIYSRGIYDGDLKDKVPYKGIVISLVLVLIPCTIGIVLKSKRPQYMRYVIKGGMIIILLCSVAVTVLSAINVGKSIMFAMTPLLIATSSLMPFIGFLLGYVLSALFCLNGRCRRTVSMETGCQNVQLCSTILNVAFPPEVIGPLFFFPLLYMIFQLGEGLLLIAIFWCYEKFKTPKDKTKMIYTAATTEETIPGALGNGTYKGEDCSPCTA
# human NTCP [2] = biological target: T1, human NTCP; assay: Screening fluorescent competitive Myrcludex B-FITC binding assay (96-well, 10 µM drug)
# [3] = Prestwick library screen, taurocholate uptake, 10 µM drug
# [4] = ranking score beside the functional and binding assay B-scores of the screen
# [5] = Prestwick library screen, Myrcludex B-FITC binding, 10 µM drug
# [6] = Prestwick library screen, 10 µM drug, B-score of taurocholate uptake
# [7] = combined ranking from functional and binding assay B-scores
# [8] = Prestwick library screen, 10 µM drug, B-score of Myrcludex B-FITC binding
# [9] = combined ranking from functional and binding screening assays
# [10] = screen, 10 µM drug, taurocholate uptake
# [11] = screen, 10 µM drug, Myrcludex B-FITC binding
smiles,measurement,setting,value
CC(N)C12CC3CC(CC(C3)C1)C2 (stereo not drawn) [Rimantadine Hydrochloride],B-score functional assay,human NTCP [1]; [3],0.074
same,Ranking score,human NTCP [1]; [4],753.923
same,B-score binding assay,human NTCP [2]; [5],0.171
Cl.O=C(OCC(O)CO)c1ccccc1Nc1ccnc2cc(Cl)ccc12 (stereo not drawn) [Glafenine hydrochloride],B-score functional assay,human NTCP [1]; [6],0.341
same,Ranking score,human NTCP [1]; [7],1037.91
same,B-score binding assay,human NTCP [2]; [8],3.077
Cl.N[C@@H]1CCCCN(c2c(F)cc3c(=O)c(C(=O)O)cn(C4CC4)c3c2Cl)C1 [Besifloxacin hydrochloride],B-score functional assay,human NTCP [1]; [6],1.274
same,Ranking score,human NTCP [1]; [7],1087.71
same,B-score binding assay,human NTCP [2]; [8],1.112
Nc1nc(=O)c2nc(CNc3ccc(C(=O)N[C@@H](CCC(=O)O)C(=O)O)cc3)cnc2[nH]1 [Folic acid],Ranking score,human NTCP [1]; [9],436.211
same,B-score functional assay,human NTCP [1]; [10],-0.57
same,B-score binding assay,human NTCP [2]; [11],-0.117
CCCCc1oc2ccccc2c1C(=O)c1cc(I)c(OCCN(CC)CC)c(I)c1 [Amiodarone hydrochloride],B-score functional assay,human NTCP [1]; [3],0.027
same,Ranking score,human NTCP [1]; [4],845.421
same,B-score binding assay,human NTCP [2]; [5],1.025
COc1ccc(CN2CCN(C(c3ccc(F)cc3)c3ccc(F)cc3)CC2)c(OC)c1OC.Cl.Cl [Lomerizine hydrochloride],Ranking score,human NTCP [1]; [9],328.713
same,B-score functional assay,human NTCP [1]; [10],-0.214
same,B-score binding assay,human NTCP [2]; [11],-1.084
CCOC(=O)[C@H](CCc1ccccc1)N[C@@H](C)C(=O)N1CCC[C@H]1C(=O)O [Enalapril maleate],B-score functional assay,human NTCP [1]; [3],0.08
same,Ranking score,human NTCP [1]; [4],705.002
same,B-score binding assay,human NTCP [2]; [5],0.03
CCOC(=O)[C@H](CCc1ccccc1)N[C@H]1CCc2ccccc2N(CC(=O)O)C1=O [Benazepril HCl],B-score functional assay,human NTCP [1]; [6],1.384
same,Ranking score,human NTCP [1]; [7],918.755
same,B-score binding assay,human NTCP [2]; [8],0.109
COc1ccccc1N1CCN(CCCNc2cc(=O)n(C)c(=O)n2C)CC1 [Urapidil hydrochloride],B-score functional assay,human NTCP [1]; [6],0.807
same,Ranking score,human NTCP [1]; [7],1027.42
same,B-score binding assay,human NTCP [2]; [8],1.015
CNCCC=C1c2ccccc2C=Cc2ccccc21 [Norcyclobenzaprine],B-score functional assay,human NTCP [1]; [3],0.855
same,Ranking score,human NTCP [1]; [4],807.009
same,B-score binding assay,human NTCP [2]; [5],-0.001
"CC(C)(S)C(N)C(=O)O (racemic) [D,L-Penicillamine]",B-score functional assay,human NTCP [1]; [6],0.176
same,Ranking score,human NTCP [1]; [7],845.872
same,B-score binding assay,human NTCP [2]; [8],0.477
COc1nc(C)nc(Cl)c1N=C1NCCN1 [Moxonidine],Ranking score,human NTCP [1]; [9],427.083
same,B-score functional assay,human NTCP [1]; [10],-0.211
same,B-score binding assay,human NTCP [2]; [11],-0.494
CCOC(=O)c1cncn1[C@H](C)c1ccccc1 [Etomidate],B-score functional assay,human NTCP [1]; [6],5.522
same,Ranking score,human NTCP [1]; [7],852.333
same,B-score binding assay,human NTCP [2]; [8],-0.068
CCCCNc1ccc(C(=O)OCCN(C)C)cc1.Cl [Tetracaïne hydrochloride],B-score functional assay,human NTCP [1]; [6],0.799
same,Ranking score,human NTCP [1]; [7],1118.05
same,B-score binding assay,human NTCP [2]; [8],2.591
CC1(C)[C@H](C(=O)O)N2C(=O)C[C@H]2S1(=O)=O [Sulbactam],Ranking score,human NTCP [1]; [9],399.332
same,B-score functional assay,human NTCP [1]; [10],1.339
same,B-score binding assay,human NTCP [2]; [11],-1.629
CCC[C@H](N[C@@H](C)C(=O)N1[C@H](C(=O)O)C[C@@H]2CCCC[C@@H]21)C(=O)OCC [Perindopril],Ranking score,human NTCP [1]; [9],319.862
same,B-score functional assay,human NTCP [1]; [10],-2.428
same,B-score binding assay,human NTCP [2]; [11],1.021
CCOC(=O)C(C)(C)Oc1ccc(Cl)cc1 [Clofibrate],B-score functional assay,human NTCP [1]; [6],1.746
same,Ranking score,human NTCP [1]; [7],1068.42
same,B-score binding assay,human NTCP [2]; [8],0.712
CC(C)OC(=O)CCC/C=C\C[C@@H]1[C@@H](CC[C@@H](O)CCc2ccccc2)[C@H](O)C[C@@H]1O [Latanoprost],Ranking score,human NTCP [1]; [9],347.885
same,B-score functional assay,human NTCP [1]; [10],-2.131
same,B-score binding assay,human NTCP [2]; [11],0.817
O=c1[nH]c(=O)n([C@H]2C[C@H](O)[C@@H](CO)O2)cc1C(F)(F)F [Trifluridine],B-score functional assay,human NTCP [1]; [6],0.173
same,Ranking score,human NTCP [1]; [7],994.589
same,B-score binding assay,human NTCP [2]; [8],2.847
"CCN(CC)CCOc1ccc(C(=C(Cl)c2ccccc2)c2ccccc2)cc1.O=C(O)CC(O)(CC(=O)O)C(=O)O [Clomiphene citrate (Z,E)]",B-score functional assay,human NTCP [1]; [3],0.862
same,Ranking score,human NTCP [1]; [4],678.964
same,B-score binding assay,human NTCP [2]; [5],-0.291
CN(C)CC/C=C1/c2ccccc2Sc2ccc(Cl)cc21 [Chlorprothixene hydrochloride],B-score functional assay,human NTCP [1]; [3],0.429
same,Ranking score,human NTCP [1]; [4],661.498
same,B-score binding assay,human NTCP [2]; [5],-0.184
CC(C)N(CCC(C(N)=O)(c1ccccc1)c1ccccn1)C(C)C (stereo not drawn) [Disopyramide],B-score functional assay,human NTCP [1]; [6],0.051
same,Ranking score,human NTCP [1]; [7],925.407
same,B-score binding assay,human NTCP [2]; [8],2.245
Nc1ccn([C@@H]2O[C@H](CO)[C@@H](O)[C@@H]2O)c(=O)n1 [Cytarabine],B-score functional assay,human NTCP [1]; [6],0.582
same,Ranking score,human NTCP [1]; [7],944.957
same,B-score binding assay,human NTCP [2]; [8],0.655
C[C@@H](O)[C@H]1C(=O)N2C(C(=O)O)=C(S[C@@H]3CN[C@H](C(=O)N(C)C)C3)[C@H](C)[C@H]12 [Meropenem],B-score functional assay,human NTCP [1]; [6],0.4
same,Ranking score,human NTCP [1]; [7],900.139
same,B-score binding assay,human NTCP [2]; [8],0.55
CC(C)C(=O)Nc1ccc([N+](=O)[O-])c(C(F)(F)F)c1 [Flutamide],Ranking score,human NTCP [1]; [9],383.15
same,B-score functional assay,human NTCP [1]; [10],-1.233
same,B-score binding assay,human NTCP [2]; [11],0.039
Cn1nnc2c(C(N)=O)ncn2c1=O [Temozolomide],B-score functional assay,human NTCP [1]; [6],0.533
same,Ranking score,human NTCP [1]; [7],906.245
same,B-score binding assay,human NTCP [2]; [8],0.415
O=P1(N(CCCl)CCCl)NCCCO1 (stereo not drawn) [Cyclophosphamide],B-score functional assay,human NTCP [1],0.493
same,Ranking score,human NTCP [1],990.921
same,B-score binding assay,human NTCP [2],1.227
C[C@@H]1CN([C@H]2CC[C@](C#N)(c3ccc(F)cc3)CC2)CC[C@]1(C(=O)O)c1ccccc1 [Levocabastine hydrochloride],B-score functional assay,human NTCP [1]; [3],-0.031
same,Ranking score,human NTCP [1]; [4],801.329
same,B-score binding assay,human NTCP [2]; [5],1.175
Brc1c(NC2=NCCN2)ccc2nccnc12.O=C(O)C(O)C(O)C(=O)O [Brimondine L-Tartrate],Ranking score,human NTCP [1]; [9],294.551
same,B-score functional assay,human NTCP [1]; [10],-1.091
same,B-score binding assay,human NTCP [2]; [11],-0.57
CCN(CC)CCOC(=O)C1(c2ccc([N+](=O)[O-])cc2)CCCC1.Cl [Nitrocaramiphen hydrochloride],B-score functional assay,human NTCP [1]; [6],0.881
same,Ranking score,human NTCP [1]; [7],904.838
same,B-score binding assay,human NTCP [2]; [8],0.18
CCC[C@@H]1C[C@@H](C(=O)N[C@@H]([C@H]2O[C@H](SC)[C@H](O)[C@@H](O)[C@H]2O)[C@@H](C)O)N(C)C1 [Lincomycin hydrochloride],B-score functional assay,human NTCP [1]; [6],0.903
same,Ranking score,human NTCP [1]; [7],960.458
same,B-score binding assay,human NTCP [2]; [8],0.419
CNCCCC12CCC(c3ccccc31)c1ccccc12 [Maprotiline hydrochloride],Ranking score,human NTCP [1]; [9],403.36
same,B-score functional assay,human NTCP [1]; [10],-0.051
same,B-score binding assay,human NTCP [2]; [11],-0.835
O=C1[C@H]2CCCC[C@H]2C(=O)N1CCCCN1CCN(c2nsc3ccccc23)CC1 [Perospirone],B-score functional assay,human NTCP [1]; [6],0.093
same,Ranking score,human NTCP [1]; [7],917.333
same,B-score binding assay,human NTCP [2]; [8],1.438
C[N+](C)(C)CCCCCCCCCC[N+](C)(C)C [Decamethonium bromide],Ranking score,human NTCP [1]; [9],433.577
same,B-score functional assay,human NTCP [1]; [10],-0.848
same,B-score binding assay,human NTCP [2]; [11],0.021
CCN(CC)CC(=O)Nc1c(C)cccc1C [Lidocaine hydrochloride],B-score functional assay,human NTCP [1]; [3],0.516
same,Ranking score,human NTCP [1]; [4],815.009
same,B-score binding assay,human NTCP [2]; [5],0.07
COc1ccc(OC)c(C(O)CNC(=O)CN)c1 (stereo not drawn) [Midodrine hydrochloride],B-score functional assay,human NTCP [1]; [3],-0.28
same,Ranking score,human NTCP [1]; [4],735.356
same,B-score binding assay,human NTCP [2]; [5],2.033
O=C(O)c1cccnc1 [Niacin],B-score functional assay,human NTCP [1]; [3],0.004
same,Ranking score,human NTCP [1]; [4],716.877
same,B-score binding assay,human NTCP [2]; [5],0.206
